In US9499510B2, “Pro-drug compounds” (Proximagen Limited, priority 2012, dated 2016):
Structures can show the parent of a compound that is named as a salt. Blank lines part the entries; values can stand above or below the compound they belong to.

Legend:
[1] = Solubility in aqueous solution (pH 2 to 10); type: physicochemical
Source text: In an embodiment, prodrugs of the present invention are suitable for oral administration. The skilled person understands that the pH of the gastrointestinal tract changes along its length. For example, the stomach has a pH of around pH 1.5 and the GI tract after the stomach has a pH of around 5 to 7.5. For more detail see, for example, Measurement of gastrointestinal pH profiles in normal ambulant human subjects, Gut. 1988 August; 29(8): 1035-1041. Improved solubility is expected to result in improved absorption, and therefore improved oral bioavailability. Thus improved solubility at any pH value between around pH 1.5 to 8 is expected to improve oral bioavailability. Compounds of the invention were assessed for solubility in aqueous solutions having a pH of from 2 to 10. In an embodiment prodrugs of the invention have a solubility of >0.5 mg/mL in an aqueous solution having a pH of from 2 to 10, including from 2 to 8. In an embodiment prodrugs have a solubility of >5.0 mg/mL, or >10.0 mg/mL, >100.0 mg/mL, or >200.0 mg/mL in an aqueous solution having a pH of from 2 to 10, including from 2 to 8. In an embodiment the prodrugs have the aforementioned aqueous solubility at a pH within the range of from 4 to 8, or from 6 to 8.
In an embodiment, prodrugs of the invention are administered intravenously. High prodrug solubility is advantageous in order to reduce the volume of solution administered to the patient, and to reduce the risk of damage to the circulatory system. Solubility in an aqueous solution having a pH of from 2 to 10 of >10 mg/mL is preferred. Yet more preferred is solubility in an aqueous solution having a pH of from 2 to 10 of >30 mg/mL or >100.0 mg/mL. Yet more preferred is solubility in an aqueous solution having a pH of from 2 to 10 of >200.0 mg/mL. The solubility is measured in an aqueous solution having a pH of from 2 to 10, which pH range is advantageous for intravenous prodrug delivery. See, for example, A guide on intravenous drug compatibilities based on their pH, Nasser S C et al./Pharmacie Globale (IJCP) 2010, 5 (01)). In an embodiment the prodrugs of the claimed invention have solubility of >10 mg/mL in an aqueous solution having a pH of from 2 to 10. In an embodiment the prodrugs have the aforementioned aqueous solubility at a pH within the range of from 2 to 8, or from 4 to 8, or from 6 to 8. The solubility of the Examples is illustrated in Table 1.

[2] = molecular target: T1, human ether a go-go related gene (hERG) K+ channel (Homo sapiens, UniProt Q12809); test: hERG assay, IonWorks patch clamp electrophysiology; type: cell-based; details: Chinese Hamster Lung cell line stably expressing hERG; maximum assay concentration 33 uM
T1 construct: Chinese Hamster Lung cell line stably expressing the full length hERG channel; expressed in transfected cells; host or cells: Chinese Hamster Lung cell line
Procedure: Compounds of the invention were tested for inhibition of the human ether a go-go related gene (hERG) K^+ channel using IonWorks patch clamp electrophysiology. 8 Point concentration-response curves were generated on two occasions using 3-fold serial dilutions from the maximum assay concentration (33 uM). Electrophysiological recordings were made from a Chinese Hamster Lung cell line stably expressing the full length hERG channel. Single cell ion currents were measured in the perforated patch clamp configuration (100 ug/mL amphoterocin) at room temperature using an IonWorks Quattro instrument. The internal solution contained 140 mM KCl, 1 mM MgCl2, 1 mM EGTA and 20 mM HEPES and was buffered to pH 7.3. The external solution contained 138 mM NaCl, 2.7 mM KCl, 0.9 mM CaCl2, 0.5 mM MgCl2, 8 mM Na2HPO4 and 1.5 mM KH2PO4, and was buffered to pH 7.3. Cells were clamped at a holding potential of […] for 30 s and then stepped to +40 mV for 1 s. This was followed by a hyperpolarising step of 1 s to […] to evoke the hERG tail current. This sequence was repeated 5 times at a frequency of 0.25 Hz. Currents were measured from the tail step at the 5th pulse, and referenced to the holding current. Compounds were incubated for 6-7 min prior to a second measurement of the hERG signal using an identical pulse train. A minimum of 17 cells were required for each pIC50 curve fit. […]

T1 sequence (Q12809 whole entry): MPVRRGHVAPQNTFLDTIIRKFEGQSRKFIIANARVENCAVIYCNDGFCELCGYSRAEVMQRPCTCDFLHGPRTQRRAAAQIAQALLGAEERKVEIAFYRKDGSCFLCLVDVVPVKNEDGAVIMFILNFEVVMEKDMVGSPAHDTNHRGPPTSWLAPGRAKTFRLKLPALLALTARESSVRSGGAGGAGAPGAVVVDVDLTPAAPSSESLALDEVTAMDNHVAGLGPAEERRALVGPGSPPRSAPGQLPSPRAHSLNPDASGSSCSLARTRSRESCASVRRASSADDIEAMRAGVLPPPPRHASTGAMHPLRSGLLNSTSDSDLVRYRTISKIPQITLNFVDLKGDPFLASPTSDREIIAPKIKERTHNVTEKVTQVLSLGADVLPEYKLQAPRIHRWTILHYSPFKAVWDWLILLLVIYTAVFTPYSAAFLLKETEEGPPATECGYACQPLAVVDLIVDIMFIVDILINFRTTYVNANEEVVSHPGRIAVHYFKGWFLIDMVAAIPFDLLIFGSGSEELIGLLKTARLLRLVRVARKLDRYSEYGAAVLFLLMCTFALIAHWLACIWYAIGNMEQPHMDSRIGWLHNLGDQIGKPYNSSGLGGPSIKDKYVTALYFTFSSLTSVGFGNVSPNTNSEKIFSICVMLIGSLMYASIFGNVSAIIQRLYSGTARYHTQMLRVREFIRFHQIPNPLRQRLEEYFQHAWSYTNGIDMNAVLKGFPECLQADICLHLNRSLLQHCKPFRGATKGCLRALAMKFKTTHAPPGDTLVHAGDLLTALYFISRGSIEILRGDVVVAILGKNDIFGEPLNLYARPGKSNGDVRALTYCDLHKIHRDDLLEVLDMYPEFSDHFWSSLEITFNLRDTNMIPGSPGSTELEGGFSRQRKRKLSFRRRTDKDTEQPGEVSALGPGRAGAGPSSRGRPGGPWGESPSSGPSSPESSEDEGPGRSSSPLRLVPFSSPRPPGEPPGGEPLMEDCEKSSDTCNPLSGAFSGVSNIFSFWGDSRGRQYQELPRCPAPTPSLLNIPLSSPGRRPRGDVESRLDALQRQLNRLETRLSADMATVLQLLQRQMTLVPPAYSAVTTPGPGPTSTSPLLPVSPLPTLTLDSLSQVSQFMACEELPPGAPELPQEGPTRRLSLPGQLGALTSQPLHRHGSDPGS

solubility ([1]; aqueous buffer, pH 3.0): > 2000 µg/mL
SMILES: CC(=O)c1ccc2c(c1)[C@H](NC(=O)c1ccc(F)c(Cl)c1)[C@H](OCOC(=O)CN(C)C)C(C)(C)O2 [Example 5, {[(3S,4S)-6-Acetyl-4-[(3-chloro-4-fluorobenzene)amido]-2,2-dimethyl-3,4-dihydro-2H-1-benzopyran-3-yl]oxy}methyl 2-(dimethylamino)acetate]

solubility ([1]; pH 5.7, aqueous buffer): > 200000 µg/mL
SMILES: CC(=O)c1ccc2c(c1)[C@H](NC(=O)c1ccc(F)c(Cl)c1)[C@H](OCOP(=O)(O)O)C(C)(C)O2 [Example 8, ({[(3S,4S)-6-Acetyl-4-[(3-chloro-4-fluorobenzene)amido]-2,2-dimethyl-3,4-dihydro-2H-1-benzopyran-3-yl]oxy}methoxy)phosphonic acid diamine]

solubility ([1]; pH 2.7, aqueous buffer): > 5000 µg/mL
SMILES: CC(=O)c1ccc2c(c1)[C@H](NC(=O)c1ccc(F)c(Cl)c1)[C@H](OC(=O)[C@@H](N)CC(C)C)C(C)(C)O2.Cl [Example 9, (3S,4S)-6-Acetyl-4-[(3-chloro-4-fluorobenzene)amido]-2,2-di methyl-3,4-dihydro-2H-1-benzopyran-3-yl(2S)-2-amino-4-methylpentanoate hydrochloride]

solubility ([1]; pH 4.4, aqueous buffer): > 20000 µg/mL
SMILES: CNCC(=O)O[C@H]1[C@@H](NC(=O)c2ccc(F)c(Cl)c2)c2cc(C(C)=O)ccc2OC1(C)C [Example 7, (3S,4S)-6-acetyl-4-[(3-chloro-4-fluorobenzene)amido]-2,2-di methyl-3,4-dihydro-2H-1-benzopyran-3-yl 2-(methylamino)acetate hydrochloride]

solubility ([1]; pH 3.5, aqueous buffer): < 250 µg/mL
SMILES: CC(=O)O[C@H]1[C@@H](NC(=O)c2ccc(F)c(Cl)c2)c2cc(C(C)=O)ccc2OC1(C)C [Example 3, (3S,4S)-6-Acetyl-4-[(3-chloro-4-fluorobenzene)amido]-2,2-dimethyl-3,4-dihydro-2H-1-benzopyran-3-yl acetate]

solubility ([1]; pH 5.7, aqueous buffer): > 50000 µg/mL
SMILES: CC(=O)c1ccc2c(c1)[C@H](NC(=O)c1ccc(F)c(Cl)c1)[C@H](OP(=O)(O)O)C(C)(C)O2 [Example 1, {[(3S,4S)-6-Acetyl-4-[(3-chloro-4-fluorobenzene)amido]-2,2-dimethyl-3,4-dihydro-2H-1-benzopyran-3-yl]oxy}phosphonic acid]
IC50 [2]: > 11 µM

solubility ([1]; pH 3.5, aqueous buffer): < 250 µg/mL
SMILES: CC(=O)OCO[C@H]1[C@@H](NC(=O)c2ccc(F)c(Cl)c2)c2cc(C(C)=O)ccc2OC1(C)C [Example 4, {[(3S,4S)-6-Acetyl-4-[(3-chloro-4-fluorobenzene)amido]-2,2-dimethyl-3,4-dihydro-2H-1-benzopyran-3-yl]oxy}methyl acetate]

solubility ([1]; aqueous buffer, pH 4.0): > 20000 µg/mL
SMILES: CC(=O)c1ccc2c(c1)[C@H](NC(=O)c1ccc(F)c(Cl)c1)[C@H](OC(=O)CN)C(C)(C)O2 [Example 6, (3S,4S)-6-Acetyl-4-[(3-chloro-4-fluorobenzene)amido]-2,2-di methyl-3,4-dihydro-2H-1-benzopyran-3-yl 2-aminoacetate hydrochloride]

solubility ([1]; pH 3.6, aqueous buffer): > 20000 µg/mL
SMILES: CC(=O)c1ccc2c(c1)[C@H](NC(=O)c1ccc(F)c(Cl)c1)[C@H](OC(=O)CN(C)C)C(C)(C)O2 [Example 2, (3S,4S)-6-Acetyl-4-[(3-chloro-4-fluorobenzene)amido]-2,2-dimethyl-3,4-dihydro-2H-1-benzopyran-3-yl 2-(dimethylamino)acetate hydrochloride]

solubility ([1]; pH 4.2, aqueous buffer): > 10000 µg/mL
SMILES: CC(=O)c1ccc2c(c1)[C@H](NC(=O)c1ccc(F)c(Cl)c1)[C@H](OC(=O)CNC(C)C)C(C)(C)O2.Cl [Example 11, (3S,4S)-6-Acetyl-4-[(3-chloro-4-fluorobenzene)amido]-2,2-di methyl-3,4-dihydro-2H-1-benzopyran-3-yl 2-[(propan-2-yl)amino]acetate hydrochloride]

solubility ([1]; pH 4.4, aqueous buffer): > 10000 µg/mL
SMILES: CCCNCC(=O)O[C@H]1[C@@H](NC(=O)c2ccc(F)c(Cl)c2)c2cc(C(C)=O)ccc2OC1(C)C.Cl [Example 10, (3S,4S)-6-Acetyl-4-[(3-chloro-4-fluorobenzene)amido]-2,2-di methyl-3,4-dihydro-2H-1-benzopyran-3-yl 2-(propylamino)acetate hydrochloride]
